The source of these data is PubChem BioAssay (NCI).

Among the test systems are SF-295 CNS; SK-MEL-28 melanoma; A549 NSCLC; K-562 leukemia; HCT-116 colon; UO-31 renal; SNB-75 CNS; 786-0 renal.
Holding throughout (assay): inhibition of tumour cell growth, NCI panel, 48 h

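Dose response: 5 concentrations. Exposure: 48 h. Format: 96-well plates. Endpoint: linear interpolation; highest concentration if not reached. The concentration for 50% growth inhibition is given as GI50. TGI denotes the concentration required for complete inhibition of growth.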

With `CC(C)C(=O)N[C@@H](C)C(=O)N(Cc1ccc2ccccc2c1)N=O`, the TGI in the experiment with SF-295 CNS, in the experiment with SK-MEL-28 melanoma, in the experiment with A549 NSCLC, in the experiment with K-562 leukemia, with HCT-116 colon and with UO-31 renal was more than 100 µM in each case. Besides, the TGI in the experiment with SNB-75 CNS and with 786-0 renal was more than 100 µM throughout.

As to `O=c1c2ccc3cccc4c(=O)cc(c5ccccc15)-c2c34`, the TGI in the experiment with SF-295 CNS, with SK-MEL-28 melanoma, with A549 NSCLC, in the experiment on K-562 leukemia, in the experiment with HCT-116 colon and in the experiment with UO-31 renal was more than 100 µM each time. In addition, the TGI with SNB-75 CNS and in the experiment on 786-0 renal was more than 100 µM throughout.

Consider `Nc1ccc(Nc2nc(F)nc(-c3c4ccccc4c4n3CCS4)n2)cc1`, for which the TGI in the experiment with SF-295 CNS worked out at 33.7 µM; in the experiment with SK-MEL-28 melanoma, 33.3 µM; in the experiment on A549 NSCLC, 31.2 µM; with HCT-116 colon, 28 µM; with UO-31 renal it was 22.2 µM; in the experiment on SNB-75 CNS, 31 µM. Further, the TGI with 786-0 renal was 32 µM.

As for `CC(=O)N1CC2Nc3ccccc3C2CC1CO` (stereo not given), the TGI in the experiment with SF-295 CNS, in the experiment on SK-MEL-28 melanoma, in the experiment with A549 NSCLC, with K-562 leukemia, in the experiment on HCT-116 colon and with UO-31 renal was more than 100 µM throughout. Moreover, the TGI in the experiment with SNB-75 CNS and in the experiment on 786-0 renal was more than 100 µM in each case.

As to `COc1ccc(C(c2ccc(C(C)C)cc(=O)c2O)c2c(O)cc3oc(-c4ccccc4)cc(=O)c3c2O)cc1` (stereo not given), the TGI was 16.7 µM in the experiment on SF-295 CNS; more than 100 µM in the experiment on SK-MEL-28 melanoma; more than 100 µM with A549 NSCLC; 64.3 µM in the experiment on K-562 leukemia; more than 100 µM in the experiment on SNB-75 CNS; 14.1 µM in the experiment on 786-0 renal.

Regarding `C(=C\c1csnn1)/c1cccnc1`, the TGI in the experiment on SF-295 CNS, with SK-MEL-28 melanoma, with A549 NSCLC, in the experiment with K-562 leukemia, with HCT-116 colon and with UO-31 renal was more than 100 µM each time. Also, the TGI in the experiment on SNB-75 CNS and with 786-0 renal was more than 100 µM in each case.

In the case of `O=C(O)/C(=C/c1ccccc1[N+](=O)[O-])c1ccccc1`, the TGI with SF-295 CNS, in the experiment on SK-MEL-28 melanoma, in the experiment on A549 NSCLC, in the experiment on K-562 leukemia, with HCT-116 colon and in the experiment on UO-31 renal was more than 100 µM each time. Also, the TGI in the experiment with SNB-75 CNS and with 786-0 renal was more than 100 µM throughout.

Take `CC(=O)OC12c3ccccc3C1CCCCCC21OCCCO1` (stereo not given): the TGI in the experiment on SF-295 CNS, in the experiment on SK-MEL-28 melanoma, with A549 NSCLC, in the experiment with K-562 leukemia, with HCT-116 colon and in the experiment with UO-31 renal was more than 100 µM in each case. For the same molecule, the TGI in the experiment on SNB-75 CNS and with 786-0 renal was more than 100 µM throughout.

Take `O=c1cc(Cl)nc[nH]1`: the TGI in the experiment with SF-295 CNS, in the experiment with SK-MEL-28 melanoma, with A549 NSCLC, in the experiment on K-562 leukemia, with HCT-116 colon and in the experiment on UO-31 renal was more than 100 µM each time. Also, the TGI in the experiment with SNB-75 CNS and in the experiment on 786-0 renal was more than 100 µM throughout.

`CCC[CH2][Sn]([CH2]CCC)([O]C(=O)c1cccc(F)c1)[O]C(=O)c1cccc(F)c1`: the GI50 in the experiment with SF-295 CNS was 1480 nM; in the experiment with SK-MEL-28 melanoma it was 703 nM; in the experiment with A549 NSCLC, 2890 nM; in the experiment on K-562 leukemia, 298 nM; with HCT-116 colon, 1290 nM; in the experiment on UO-31 renal, 1230 nM. Further, the GI50 with SNB-75 CNS is 657 nM; in the experiment on 786-0 renal, 1190 nM. Besides, the TGI worked out at 2.86 µM with SF-295 CNS; 2.02 µM in the experiment on SK-MEL-28 melanoma; 9.45 µM in the experiment on A549 NSCLC; 1.81 µM in the experiment on K-562 leukemia; 2.55 µM in the experiment with HCT-116 colon; 2.47 µM in the experiment on UO-31 renal. Besides, the TGI with SNB-75 CNS was 1.94 µM; with 786-0 renal, 2.49 µM.

For `O=C(Nc1c(-c2nc3ccccc3[nH]2)sc(=S)n1-c1ccccc1)c1ccccc1`, the TGI was more than 100 µM with SF-295 CNS; more than 100 µM with SK-MEL-28 melanoma; more than 100 µM with A549 NSCLC; more than 100 µM in the experiment with K-562 leukemia; more than 100 µM in the experiment with UO-31 renal; 58.4 µM with SNB-75 CNS. In the experiment on 786-0 renal, this molecule gave a TGI of more than 100 µM.

Turning to `O=c1ccccc2cccc(O)c12`, the TGI in the experiment with SF-295 CNS, in the experiment with SK-MEL-28 melanoma, with A549 NSCLC, in the experiment with K-562 leukemia, in the experiment on HCT-116 colon and in the experiment with SNB-75 CNS was more than 100 µM throughout. Further, the TGI with 786-0 renal is more than 100 µM.

Take `Cc1cc(NS(=O)(=O)c2ccc(NC(=O)c3cccc4c(N)c5ccccc5nc34)cc2)no1`: the TGI with SF-295 CNS is 67.2 µM; with SK-MEL-28 melanoma it was 44.2 µM; in the experiment with A549 NSCLC, more than 100 µM; in the experiment with K-562 leukemia it was more than 100 µM; in the experiment on HCT-116 colon, 27.6 µM; with UO-31 renal, 95.7 µM. In addition, the figures for the TGI with SNB-75 CNS and in the experiment with 786-0 renal were more than 100 µM and 33.7 µM, respectively.

As to `COc1ccc2c3c1C(=O)CCC3CO2` (stereo not given), the TGI in the experiment with SF-295 CNS, in the experiment on SK-MEL-28 melanoma, in the experiment on A549 NSCLC, in the experiment on K-562 leukemia, with HCT-116 colon and with UO-31 renal was more than 100 µM throughout. This molecule also displayed a TGI in the experiment with 786-0 renal of more than 100 µM.

As for `CCCNCc1nc2ccc(Br)cc2c(=O)n1CCC`, the TGI with SF-295 CNS was 30.6 µM; in the experiment with SK-MEL-28 melanoma it was 29 µM; with A549 NSCLC, 35 µM; in the experiment with K-562 leukemia, more than 100 µM; in the experiment with HCT-116 colon, 21.5 µM; in the experiment on UO-31 renal it was 29.8 µM. The TGI was 31.7 µM in the experiment with SNB-75 CNS and 29.5 µM in the experiment with 786-0 renal.

As for `CCOC(=O)/N=C(\N)SCc1ccccc1`, the TGI in the experiment on SF-295 CNS, in the experiment with SK-MEL-28 melanoma, in the experiment with A549 NSCLC, in the experiment on K-562 leukemia, in the experiment with HCT-116 colon and in the experiment with UO-31 renal was more than 100 µM each time. Moreover, the TGI in the experiment on SNB-75 CNS and in the experiment on 786-0 renal was more than 100 µM each time.
